Measured values from patent US7772252B2, “Heterocyclic substituted carbonyl derivatives and their use as dopamine D3 receptor ligands” (Aventis Pharmaceuticals Inc., priority 2001, dated 2010).

Molecular target: T1, cloned human dopamine D3 receptors (Homo sapiens, UniProt P35462)
T1 construct: expressed in transfected cells; membrane homogenate
Assay: [N-Methyl-3H]Spiroperidol binding to cloned human dopamine D3 receptors
Details: read-out: D3 Ki
Summary of the method: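 Radioligand displacement with [N-methyl-3H]spiroperidol was run on membranes from a high-expressing CHO clone carrying human D3. Membranes were prepared in 10% DMSO and stored at −80° C.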

T1 sequence (P35462 whole entry): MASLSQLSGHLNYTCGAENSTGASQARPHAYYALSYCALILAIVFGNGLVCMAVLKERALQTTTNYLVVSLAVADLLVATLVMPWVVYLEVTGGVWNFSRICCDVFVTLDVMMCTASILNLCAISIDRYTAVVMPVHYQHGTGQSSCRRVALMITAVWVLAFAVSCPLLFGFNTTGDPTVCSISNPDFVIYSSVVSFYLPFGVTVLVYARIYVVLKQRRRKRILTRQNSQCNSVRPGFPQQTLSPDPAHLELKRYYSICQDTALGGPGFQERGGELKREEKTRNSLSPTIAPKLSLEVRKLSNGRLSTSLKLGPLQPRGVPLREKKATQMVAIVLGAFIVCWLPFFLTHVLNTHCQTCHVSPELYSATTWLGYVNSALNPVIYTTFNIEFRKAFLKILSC

Structure (SMILES) | Ki [nM]
O=C(C1CC1CN1CCC(c2noc3ccsc23)CC1)N1CCC(c2cc(-c3ccco3)[nH]n2)CC1 (racemic) [compound 831704] | 47.5
O=C([C@@H]1C[C@H]1CN1CCC(c2noc3ccsc23)CC1)N1CCc2ccccc2C1 [compound 831199] | 2.78
O=C(N[C@H]1CC[C@H](O)CC1)[C@@H]1C[C@H]1CN1CCC(c2noc3c(C(F)(F)F)cccc23)CC1 [compound 832271] | 112
O=C([C@@H]1C[C@H]1CN1CCN(c2csc3cc(C(F)(F)F)ccc23)CC1)N1CCCC(CN2CCCCC2)C1 (mixture of isomers) [A002437357] | 14
Cn1nc(N2CCN(C[C@@H]3C[C@H]3C(=O)NCCCn3ccnc3)CC2)c2sccc21 [compound 831830] | 0.76
O=C(C1CC1CN1CCC(c2noc3ccsc23)CC1)N1CCN(Cc2ccccc2)CC1 (racemic) [compound 832153] | 30.7
O=C(C1CC1CN1CCC(c2noc3ccsc23)CC1)N1CCN(C2CCCC2)CC1 (racemic) [compound 832196] | 22.9
CC(C)N1CCN(C(=O)[C@@H]2C[C@H]2CN2CCN(c3csc4cc(C(F)(F)F)ccc34)CC2)CC1 [compound 832833] | 18.2
O=C(NCCc1ccc(F)cc1)[C@@H]1C[C@H]1CN1CCC(c2noc3ccsc23)CC1 [compound 832725] | 4.22
CCC1CCC(NC(=O)C2CC2CN2CCN(Cc3ccc4c(c3)OCO4)CC2)CC1 (racemic) [compound 827240] | 152
O=C(NCC1CCNCC1)[C@@H]1C[C@H]1CN1CCC(c2nn(-c3ccccc3)c3ccsc23)CC1 [A002440436A] | 11.4
C[C@H]1CC[C@H](NC(=O)[C@@H]2C[C@H]2CN2CCN(c3nn(-c4ccccc4)c4ccsc34)CC2)CC1 [compound 832849] | 1.12
COc1ccc2c(c1)c(N1CCN(C[C@@H]3C[C@H]3C(=O)NC3CCN(Cc4ccc(F)c(F)c4)CC3)CC1)nn2C [compound 833626] | 2.17
O=C(NCCCN1CCOCC1)[C@@H]1C[C@H]1CN1CCN(c2nn(-c3ccc(C(F)(F)F)cc3)c3ccsc23)CC1 [compound 834205] | 90.5
O=C([C@@H]1C[C@H]1CN1CCN(c2csc3cc(C(F)(F)F)ccc23)CC1)N1CCC[C@H](CN2CCCCC2)C1 [A002438638] | 3.28
O=C(NCCCn1ccnc1)[C@@H]1C[C@H]1CN1CCC(c2nsc3cc(Br)ccc23)CC1 [A002329097] | 101
COc1ccc2c(c1)c(N1CCN(C[C@@H]3C[C@H]3C(=O)N(C)C3CCN(C)CC3)CC1)nn2C [compound 832745] | 15
COc1ccc2c(c1)c(N1CCN(C[C@@H]3C[C@H]3C(=O)N3CCN(Cc4ccc(Cl)cc4)CC3)CC1)nn2C [compound 833124] | 26.8
O=C(NCCCN1CCCC1)[C@@H]1C[C@H]1CN1CCC(c2noc3ccsc23)CC1 [compound 831272] | 6.22
O=C(NCCCN1CCCCCC1)[C@@H]1C[C@H]1CN1CCN(c2csc3cc(C(F)(F)F)ccc23)CC1 [compound 832511] | 12.3
O=C(NCCc1cccnc1)C1CC1CN1CCC(c2noc3ccsc23)CC1 (racemic) [compound 831456] | 6.21
O=C([C@@H]1C[C@H]1CN1CCC(c2noc3ccsc23)CC1)N1CCC(c2nc3ccccc3s2)CC1 [compound 832527] | 45.4
O=C(C1COc2ccccc2O1)N1CCN(C(=O)C2CC2CN2CCC(c3noc4ccsc34)CC2)CC1 (racemic) [compound 832055] | 112
O=C(NC1CCN(Cc2ncc[nH]2)CC1)[C@@H]1C[C@H]1CN1CCC(c2noc3ccsc23)CC1 [compound 833382] | 2.32

Structure (SMILES) | Ki [nM]
CC1(C)CC(NC(=O)C2CC2CN2CCC(c3noc4ccsc34)CC2)CC(C)(C)N1 (racemic) [compound 832187] | 19.1
Cn1nc(C2CCN(C[C@@H]3C[C@H]3C(=O)NCC3CCNCC3)CC2)c2ccc(C(F)(F)F)cc21 [A002436288A] | 106
C[C@H]1CC[C@H](NC(=O)[C@@H]2C[C@H]2CN2CCC(c3nn(-c4ccc(F)cc4)c4cc(C(F)(F)F)ccc34)CC2)CC1 [compound 833698] | 134
O=C(NCCCN1CCCCC1)[C@@H]1C[C@H]1CN1CCN(c2csc3cc(C(F)(F)F)ccc23)CC1 [compound 831491] | 0.187
C[C@H]1CC[C@H](NC(=O)[C@H]2C[C@@H]2CN2CCC(c3cc4ccccc4s3)CC2)CC1 [compound 831147] | 40.8
Cc1ccc(CN2CCC(NC(=O)[C@@H]3C[C@H]3CN3CCC(c4noc5ccsc45)CC3)CC2)cc1 [compound 833482] | 0.962
CN(C)CCN1CCN(C(=O)[C@@H]2C[C@H]2CN2CCN(c3csc4cc(C(F)(F)F)ccc34)CC2)CC1 [compound 832580] | 28.8
COc1ccc2c(c1)c(N1CCN(C[C@@H]3C[C@H]3C(=O)NC3CCN(Cc4ccc(F)cc4)CC3)CC1)nn2C [compound 833835] | 0.499
COc1c(F)ccc2c(C3CCN(CCC4(C(=O)NCCCN5CCCCC5)CC4)CC3)noc12 [compound 833365] | 166
O=C(NC1CCNCC1)[C@@H]1C[C@H]1CN1CCC(c2noc3ccsc23)CC1 [compound 833383] | 2.57
O=C(NCCc1ccccn1)[C@@H]1C[C@H]1CN1CCC(c2noc3ccsc23)CC1 [compound 831274] | 17.4
O=C([C@@H]1C[C@H]1CN1CCC(c2noc3ccsc23)CC1)N1CCC(Cn2ccnc2)CC1 [compound 831957] | 63.2
O=C(NCCCn1ccnc1)[C@@H]1C[C@H]1CN1CCC(c2nn(CC(F)(F)F)c3ccsc23)CC1 [A002287767, 2R-{4-[1-(2,2,20Trifluoro-ethyl)-1H-thieno[3,2-c]pyrazol-3-yl)-piperidin-1-ylmethyl]-1R-cycloproanecarboxylic acid (3-imidazol-1-yl-propyl)-amide] | 3.3
COc1cccc2c(C3CCN(C[C@@H]4C[C@H]4C(=O)NCCCn4ccnc4)CC3)noc12 [compound 831880] | 100
COc1ccc2c(c1)c(N1CCN(C[C@@H]3C[C@H]3C(=O)NC3CCN(Cc4cccc(Cl)c4)CC3)CC1)nn2C [compound 833836] | 1.36
O=C(c1ccc(Cl)cc1)C1CCN(C(=O)C2CC2CN2CCC(c3noc4ccsc34)CC2)CC1 (racemic) [compound 831458] | 7.43
CC(C)(C)OC(=O)NCCN1CCN(C(=O)[C@@H]2C[C@H]2CN2CCN(c3csc4cc(C(F)(F)F)ccc34)CC2)CC1 [compound 833278] | 7.04
C[C@H]1CC[C@H](NC(=O)[C@@H]2C[C@H]2CN2CCN(c3nn(-c4ccc(C(F)(F)F)cc4)c4ccsc34)CC2)CC1 [compound 832881] | 37.9
Cn1nc(C2CCN(C[C@@H]3C[C@H]3C(=O)N[C@H]3CC[C@H](C)CC3)CC2)c2ccc(Br)cc21 [compound 833693] | 18.4
O=C(NC1CCN(Cc2ccncc2)CC1)C1CC1CN1CCC(c2noc3ccsc23)CC1 (racemic) [compound 832393] | 8.44
CN1CCC[C@@H]1CCNC(=O)[C@@H]1C[C@H]1CN1CCN(c2csc3cc(C(F)(F)F)ccc23)CC1 [compound 832216] | 76.5
CN1CCN(CCCNC(=O)[C@@H]2C[C@H]2CN2CCC(c3nsc4cc(Br)ccc34)CC2)CC1 [A002438664] | 6.49
O=C(NCCCCc1ccccc1)[C@@H]1C[C@H]1CN1CCC(c2noc3ccsc23)CC1 [compound 831047] | 2.87
CC(C)COC(=O)n1c(CCCNC(=O)C2CC2CN2CCC(c3noc4ccsc34)CC2)nc2ccccc21 (racemic) [compound 831621] | 70.3
